According to patent US10870634B2, “Histone demethylase inhibitors” (CELGENE QUANTICEL RESEARCH, INC., priority 2016, dated 2020):
pIC50: −log10 of the molar value.

Molecular target: T1, Jarid1B (Homo sapiens, UniProt Q9UGL1)
T1 construct: purchased BPS Bioscience (or custom made by MolecularThroughput) 50121
T1 sequence (Q9UGL1 2-751): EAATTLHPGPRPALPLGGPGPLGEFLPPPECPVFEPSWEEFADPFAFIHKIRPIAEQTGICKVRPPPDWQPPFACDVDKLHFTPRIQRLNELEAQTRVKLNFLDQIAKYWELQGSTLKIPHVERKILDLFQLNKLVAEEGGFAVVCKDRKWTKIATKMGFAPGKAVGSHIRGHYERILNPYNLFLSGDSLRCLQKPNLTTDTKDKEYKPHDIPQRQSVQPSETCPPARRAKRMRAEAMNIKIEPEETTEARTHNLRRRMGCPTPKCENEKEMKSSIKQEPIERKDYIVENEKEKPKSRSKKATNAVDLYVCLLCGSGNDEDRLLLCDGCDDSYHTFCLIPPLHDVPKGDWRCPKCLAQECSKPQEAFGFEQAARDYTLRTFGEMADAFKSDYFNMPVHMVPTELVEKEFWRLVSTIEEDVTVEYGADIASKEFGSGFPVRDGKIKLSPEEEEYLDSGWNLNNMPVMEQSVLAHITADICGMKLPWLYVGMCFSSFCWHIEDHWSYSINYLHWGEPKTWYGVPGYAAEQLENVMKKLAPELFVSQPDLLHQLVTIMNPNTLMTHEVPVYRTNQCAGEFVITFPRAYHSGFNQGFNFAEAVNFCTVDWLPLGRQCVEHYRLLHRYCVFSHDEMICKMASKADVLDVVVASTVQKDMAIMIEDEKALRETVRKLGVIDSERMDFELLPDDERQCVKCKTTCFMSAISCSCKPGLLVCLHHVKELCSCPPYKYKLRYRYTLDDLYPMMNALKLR
Test: Jarid1B in vitro enzyme inhibition assay (TR-FRET)
Type: biochemical
Conditions: 0.8 nM Jarid1B, 300 nM H3K4me3-biotin peptide, 2 μM alpha-ketoglutaric acid
Source text: This assay determines the ability of a test compound to inhibit Jarid1B, JMJD2C and JMJD3 demethylase activity. Baculovirus-expressed Jarid1B (GenBank Accession # NM-006618, AA 2-751) was purchased from BPS Bioscience (Cat #50121) or custom made by MolecularThroughput. Baculovirus-expressed JMJD2C (GenBank Accession # BC143571, AA 2-372) was purchased from BPS Bioscience (Cat #50105). Baculovirus-expressed JMJD3 (GenBank Accession # NM_001080424, AA1043-end) was purchased from BPS Bioscience (Cat #50115).
The ability of test compounds to inhibit the activity of Jarid1B was determined in 384-well plate format under the following reaction conditions: 0.8 nM Jarid1B, 300 nM H3K4me3-biotin labeled peptide (Anaspec cat #64357), 2 μM alpha-ketoglutaric acid in assay buffer of 50 mM HEPES, pH 7.3, 0.005% Brij35, 0.5 mM TCEP, 0.2 mg/ml BSA, 50 μM sodium L-ascorbate, and […] ammonium ironII sulfate. Reaction product was determined quantitatively by TR-FRET after the addition of detection reagent Phycolink Streptavidin-allophycocyanin (Prozyme) and Europium-anti-mono-or di-methylated historic H3 lysine 4 (H3K4me1-2) antibody (PerkinElmer) in the presence of 5 mM EDTA in LANCE detection buffer (PerkinElmer) at a final concentration of 25 nM and 1 nM, respectively.
The assay reaction was initiated by the following: 2 μl of the mixture of 900 nM H3K4me3-biotin labeled peptide and 6 μM alpha-ketoglutaric acid with 2 μl of 11-point serial diluted inhibitor in 3% DMSO was added to each well of the plate, followed by the addition of 2 μl of 2.4 nM Jarid1B to initiate the reaction. […] Plates were read by EnVisionMultilabel Reader in TR-FRET mode (excitation at 320 nm, emission at 615 nm and 665 nm) after 1 hr incubation at room temp. A ratio was calculated (665/615) for each well and fitted to determine inhibition constant (IC50).
The ability to inhibit demethylase activity was quantified and the respective IC50 value was determined for substituted triazolylpyridine derivative compounds. […]

SMILES	pIC50
Fc1cnccc1-c1nn[nH]c1C(F)(F)F [Example 1, 3-fluoro-4-[5-(trifluoromethyl)-1H-1,2,3-triazol-4-yl]pyridine]	< 5.00
Fc1ccc(Cl)cc1Nc1cnccc1-c1nn[nH]c1C(F)(F)F [Example 2, N-(5-chloro-2-fluorophenyl)-4-[5-(trifluoromethyl)-1H-1,2,3-triazol-4-yl]pyridin-3-amine]	< 5.00
FC(F)(F)c1[nH]nnc1-c1ccncc1NCC1CCCc2ccccc21 (stereo not drawn) [Example 3, N-[(1,2,3,4-tetrahydronaphthalen-1-yl)methyl]-4-[5-(trifluoromethyl)-1H-1,2,3-triazol-4-yl]pyridine-3-amine]	< 5.00
